This is an account of results in patent publication US5583147A, “Amides for the treatment of atherosclerosis” (The Dupont Merck Pharmaceutical Company, priority 1994, dated 1996).

This assay has as its target T1, Acyl-CoA: Cholesterol Acyltransferase (ACAT) (Rattus norvegicus, UniProt Q7TQM4).
T1 construct: centrifuged at 105,000×g for 1 hour to pellet the microsomes; from tissue; host or cells: liver microsomes of male Sprague Dawley rats
T1 sequence (Q7TQM4 1-524): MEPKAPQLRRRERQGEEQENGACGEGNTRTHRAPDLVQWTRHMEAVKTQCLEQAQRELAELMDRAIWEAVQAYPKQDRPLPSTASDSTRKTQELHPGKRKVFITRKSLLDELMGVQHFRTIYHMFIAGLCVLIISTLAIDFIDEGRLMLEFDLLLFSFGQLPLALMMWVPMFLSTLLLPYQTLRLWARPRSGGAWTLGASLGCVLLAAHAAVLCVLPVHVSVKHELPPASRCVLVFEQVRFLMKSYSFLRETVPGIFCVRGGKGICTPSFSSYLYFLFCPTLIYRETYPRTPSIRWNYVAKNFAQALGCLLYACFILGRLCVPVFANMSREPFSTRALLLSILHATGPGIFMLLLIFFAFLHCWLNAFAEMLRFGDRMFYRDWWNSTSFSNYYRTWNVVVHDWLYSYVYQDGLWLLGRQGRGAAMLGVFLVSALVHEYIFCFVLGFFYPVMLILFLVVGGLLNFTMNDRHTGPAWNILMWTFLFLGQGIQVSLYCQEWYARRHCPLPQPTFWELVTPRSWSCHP
Description: Inhibition of Acyl-CoA: Cholesterol Acyltransferase (ACAT) in Hepatic Microsomes (In Vitro Assay). It is filed as biochemical, rat (male Sprague Dawley). The settings on record: 75 μM 14C-oleoyl-CoA, pH 7.4, 37° C., 10 min, read-out: ACAT Inhibitory Activity (In Vitro) (IC50). As for the experimental part: A. Assay of the Inhibition of Acyl-CoA: Cholesterol Acyltransferase (ACAT) in Hepatic Microsomes (In Vitro Assay)
The ability of the compounds to inhibit ACAT, the enzyme responsible for the intracellular synthesis of cholesteryl esters, was tested as follows. Male Sprague Dawley rats weighing 150-300 g, were fed rat chow ad libitum. The animals were fasted for twenty-four hours prior to being euthanized by CO2. The livers were perfused in situ with 50 ml of cold 0.25 sucrose, excised, and homogenized in three volumes of 0.1M phosphate buffer, pH 7.4, that contained 0.5 mM EDTA (ethylenediamine-tetraacetic acid), 1.0 mM glutathione, 0.25M sucrose and […] leupeptin. Microsomes were obtained by differential centrifugation; the supernatant from an initial spin at 15,000×g for 15 minutes was centrifuged at 105,000×g for 1 hour to pellet the microsomes. The microsomes were suspended in homogenization buffer, reisolated by centrifugation, and stored at -70° C. Microsomes were used within one month of preparation.
The control assay in a final volume of 200 μl consisted of 200 μg of microsomal protein, 75 μM ^14 C-oleoyl-CoA (10,000 dpm/nmol) in 0.1M phosphate, pH 7.4, that contained 1 mM glutathione. Compounds were added in 5 μl of DMSO (dimethyl sulfoxide) and additional controls were run with DMSO only. All components, except the oleoyl-CoA, were preincubated for 15 min. at 37° C. prior to the initiation of the reaction by the addition of oleoyl-CoA. The assay was terminated after 10 min by the addition of 4 ml of chloroform:methanol (2:1, v/v). 20,000 dpm of ^3 H-cholesteryl oleate and 10 μg of unlabeled cholesteryl oleate and oleic acid were added as an internal standard and carriers, respectively. After allowing 10 min. for lipid extraction, the samples were centrifuged at 1,000×g for 10 min to separate the solvent layers. The chloroform layer containing the neutral lipids was spotted onto a Baker SI250-Pa silica gel TLC plate and the plate developed using a hexane:diethyl ether:acetic acid (170:30:1) v/v/v) mobile phase. The lipids were visualized by their interaction with iodine vapor and the cholesteryl ester spot was scraped into a scintillation vial and counted. The specific activity of ACAT in the control incubation averaged 260 pmol/min/mg microsomal protein. The data obtained are expressed as the concentration at which ACAT activity is inhibited by 50% (IC50).
On to `CCSC(C(=O)Nc1c(SC)cc(C)nc1SC)c1ccccc1` (single isomer, unassigned) [Example 50, N-[2,4-bis(methylthio)-6-methyl-3-pyridyl]-L-(+)-α-ethylthio-phenylacetamide], for which the IC50 is under 1 µM.
The value for `CSc1cc(C)nc(SC)c1NC(=O)C(Sc1ccccc1)c1ccc(Cl)cc1` (stereo not drawn) [Example 102, N-[2,4-bis(methylthio)-6-methyl-3-pyridyl]-α-phenylthio-4-chloro-phenylacetamide] was under 1 µM.
With `CCCCCCSC(C(=O)Nc1c(SC)cc(C)nc1SC)c1ccc(C(C)C)cc1` (stereo not drawn) [Example 403, N-[2,4-bis(methylthio)-6-methyl-3-pyridyl]-α-hexylthio-4-isopropylphenylacetamide] the figure was under 1 µM.
With `CSc1cc(C)nc(SC)c1NC(=O)C(SCc1ccccc1)c1ccc(-c2ccccc2)cc1` (stereo not drawn) [Example 463, N-[2,4-bis(methylthio)-6-methyl-3-pyridyl]-α-benzylthio-4-biphenylacetamide] the figure was under 1 µM; with `CSc1cc(C)nc(SC)c1NC(=O)C(SCc1ccc(Cl)cc1)c1cccc(Oc2ccc(Br)cc2)c1` (stereo not drawn) [Example 326, N-[2,4-bis(methylthio)-6-methyl-3-pyridyl]-α-(4-chloro-benzylthio)-3-(4'-bromophenoxy)-phenylacetamide], under 1 µM; with `COc1ccc(SC(C(=O)Nc2c(SC)cc(C)nc2SC)c2ccc(Cl)cc2)cc1` (stereo not drawn) [Example 103, N-[2,4-bis(methylthio)-6-methyl-3-pyridyl]-α-(4-methoxy-phenylthio)-4-chloro-phenylacetamide], under 1 µM.
For `CCCCCCSC(C(=O)Nc1c(SC)cc(C)nc1SC)c1ccc(OC)c(OC)c1` (stereo not drawn) [Example 232, N-[2,4-bis(methylthio)-6-methyl-3-pyridyl]-α-hexylthio-3,4-dimethoxy-phenylacetamide], the IC50 is under 1 µM.
Consider `COc1ccc(C(OC)C(=O)Nc2c(C(C)C)cccc2C(C)C)cc1` (stereo not drawn) [Example 147, N-(2,6-diisopropyl-phenyl)-α-O-methyl-4-methoxymandeloamide], for which the IC50 fell in the range of 1 to 10 µM.
Turning to `COc1ccc(CSC(C(=O)Nc2c(SC)cc(C)nc2SC)c2ccc(-c3ccccc3)cc2)cc1` (stereo not drawn) [Example 465, N-[2,4-bis(methylthio)-6-methyl-3-pyridyl]-α-(4-methoxy-benzylthio)-4-biphenylacetamide], the IC50 is under 1 µM.
The value for `CSc1cc(C)nc(SC)c1NC(=O)C(SCc1ccccc1)c1cccc(Oc2ccccc2)c1` (stereo not drawn) [Example 321, N-[2,4-bis(methylthio)-6-methyl-3-pyridyl]-α-benzylthio-3-phenoxy-phenylacetamide] was under 1 µM; that for `CSc1cc(C)nc(SC)c1NC(=O)C(SCc1ccc(Cl)cc1)c1ccc(C(C)C)cc1` (stereo not drawn) [Example 410, N-[2,4-bis(methylthio)-6-methyl-3-pyridyl]-α-(4-chloro-benzylthio)-4-isopropylphenylacetamide] was under 1 µM; that for `COc1ccc(CSC(C(=O)Nc2c(SC)cc(C)nc2SC)c2ccc(C(F)(F)F)cc2)cc1` (stereo not drawn) [Example 381, N-[2,4-bis(methylthio)-6-methyl-3-pyridyl]-α-(4-methoxy-benzylthio)-4-trifluoromethyl-phenylacetamide] was under 1 µM.
With `CSc1cc(C)nc(SC)c1NC(=O)C(SCc1ccc(Cl)cc1)c1ccc(Cl)cc1` (stereo not drawn) [Example 92, N-[2,4-bis(methylthio)-6-methyl-3-pyridyl]-α-(4-chloro-benzylthio)-4-chloro-phenylacetamide] the figure was under 1 µM.
With `CCSC(C(=O)Nc1c(SC)cc(C)nc1SC)c1ccccc1` (single isomer, unassigned) [Example 49, N-[2,4-bis(methylthio)-6-methyl-3-pyridyl]-D-(-)-α-ethylthio-phenylacetamide], the IC50 was under 1 µM.
On to `CSc1cc(C)nc(SC)c1NC(=O)C(SCc1ccccc1)c1ccc(Oc2ccccc2)cc1` (stereo not drawn) [Example 292, N-[2,4-bis(methylthio)-6-methyl-3-pyridyl]-α-benzylthio-4-phenoxy-phenylacetamide], for which the IC50 was under 1 µM.
With `COc1ccc(C(SCc2ccccc2)C(=O)Nc2c(SC)cc(C)nc2SC)cc1OC` (stereo not drawn) [Example 236, N-[2,4-bis(methylthio)-6-methyl-3-pyridyl]-α-benzylthio-3,4-dimethoxy-phenylacetamide] the figure was under 1 µM; with `COc1ccc(SC(C(=O)Nc2c(SC)cc(C)nc2SC)c2ccc(F)cc2)cc1` (stereo not drawn) [Example 167, N-[2,4-bis(methylthio)-6-methyl-3-pyridyl]-α-(4-methoxy-phenylthio)-4-fluoro-phenylacetamide], under 1 µM; with `CSc1cc(C)nc(SC)c1NC(=O)C(SCc1ccc(Cl)cc1)c1ccc(Oc2ccccc2)cc1` (stereo not drawn) [Example 295, N-[2,4-bis(methylthio)-6-methyl-3-pyridyl]-α-(4-chloro-benzylthio)-4-phenoxy-phenylacetamide], under 1 µM.
With `COc1ccc(CSC(C(=O)Nc2c(SC)cc(C)nc2SC)c2ccc(F)cc2)cc1` (stereo not drawn) [Example 154, N-[2,4-bis(methylthio)-6-methyl-3-pyridyl]-α-(4-methoxy-benzylthio)-4-fluoro-phenylacetamide] the figure was under 1 µM; with `COc1ccc(C(SCc2ccc(Cl)cc2)C(=O)Nc2c(SC)cc(C)nc2SC)cc1` (stereo not drawn) [Example 123, N-[2,4-bis(methylthio)-6-methyl-3-pyridyl]-α-(4-chloro-benzylthio)-4-methoxy-phenylacetamide], under 1 µM; with `CCCCCCSC(C(=O)Nc1c(SC)cc(C)nc1SC)c1ccc(Oc2ccccc2)cc1` (stereo not drawn) [Example 288, N-[2,4-bis(methylthio)-6-methyl-3-pyridyl]-α-hexylthio-4-phenoxy-phenylacetamide], under 1 µM.
With `CSc1cc(C)nc(SC)c1NC(=O)C(SCc1ccccc1)c1ccc(F)cc1` (stereo not drawn) [Example 152, N-[2,4-bis(methylthio)-6-methyl-3-pyridyl]-α-benzylthio-4-fluoro-phenylacetamide] the figure was under 1 µM.
Turning to `CSc1cc(C)nc(SC)c1NC(=O)C(SCc1ccc(F)cc1)c1ccc(Cl)c(Cl)c1` (stereo not drawn) [Example 181, N-[2,4-bis(methylthio)-6-methyl-3-pyridyl]-α-(4-fluoro-benzylthio)-3,4-dichloro-phenylacetamide], the IC50 was under 1 µM.
With `CCCCCCSC(C(=O)Nc1c(C(C)C)cccc1C(C)C)c1ccccc1` (single isomer, unassigned) [Example 42, N-(2,6-diisopropyl-phenyl)-D-(-)-α-hexylthio-phenylacetamide] the figure was under 1 µM; with `CCCCCCSC(C(=O)Nc1c(SC)cc(C)nc1SC)c1ccc([N+](=O)[O-])cc1` (stereo not drawn) [Example 487, N-[2,4-bis(methylthio)-6-methyl-3-pyridyl]-α-hexylthio-4-nitro-phenylacetamide], under 1 µM.
The value for `CSc1cc(C)nc(SC)c1NC(=O)C(SCc1ccc(F)cc1)c1ccc(C(F)(F)F)cc1` (stereo not drawn) [Example 380, N-[2,4-bis(methylthio)-6-methyl-3-pyridyl]-α-(4-fluoro-benzylthio)-4-trifluoromethyl-phenylacetamide] was under 1 µM; that for `COc1ccc(C(OC)C(=O)Nc2c(SC)cc(C)nc2SC)cc1` (stereo not drawn) [Example 146, N-[2,4-bis(methylthio)-6-methyl-3-pyridyl]-α-O-methyl-4-methoxymandeloamide] was 1 to 10 µM.
`CCCCCCSC(C(=O)Nc1c(SC)cc(C)nc1SC)c1ccc(F)cc1F` (stereo not drawn) [Example 204, N-[2,4-bis(methylthio)-6-methyl-3-pyridyl]-α-hexylthio-2,4-difluoro-phenylacetamide]: the IC50 is under 1 µM.
